From US20210238197A1, “NOVEL OXOQUINOLIZINE COMPOUNDS FOR THE TREATMENT AND PROPHYLAXIS OF BACTERIAL INFECTION” (Hoffmann-La Roche Inc., priority 2018, published 2021)
In brackets after ≈: the same amount, converted by molar mass. Like-named read-outs stand apart in the source and are kept apart here.

Assays:
[1] = system: S. aureus (ATCC29213); test: 50% growth inhibitory concentration (IC50) determination assay, S. aureus; type: cell-based; details: Staphylococcus aureus, ATCC29213; Iso-Sensitest broth, growth by OD 600 nm over 16 h; <0.098 = detection limit
Protocol: (§1) The in vitro antimicrobial activity of the compounds against S. aureus (ATCC29213), K. pneumoniae (ATCC10031), and A. baumannii (ATCC17978), was determined according to the following procedure: The assay used a 10-points Iso-Sensitest broth medium to measure quantitatively the in vitro activity of the compounds against S. aureus ATCC29213, K. pneumoniae ATCC 10031, and A. baumannii ATCC17978. Stock compounds in DMSO were serially two-fold diluted (range from 50 to 0.097 μM final concentration) in 384 wells microtiter plates and inoculated with 49 μL the bacterial suspension in Iso-Sensitest broth medium to have a final cell concentration of ˜5×10^5 CFU/mL in a final volume/well of 50 μL/well. Microtiter plates were incubated at 35±2° C. Bacterial cell growth was determined with the measurement of optical density at λ=600 nm each 20 minutes over a time course of 16 h.

[2] = system: K. pneumoniae (ATCC10031); test: 50% growth inhibitory concentration (IC50) determination assay, K. pneumoniae; type: cell-based; details: Klebsiella pneumoniae, ATCC10031; Iso-Sensitest broth, growth by OD 600 nm over 16 h; <0.098 = detection limit
Protocol: as §1

[3] = system: A. baumannii (ATCC17978); test: 50% growth inhibitory concentration (IC50) determination assay, A. baumannii; type: cell-based; details: Acinetobacter baumannii, ATCC17978; Iso-Sensitest broth, growth by OD 600 nm over 16 h; <0.098 = detection limit
Protocol: as §1

[4] = system: multiple species and strains; test: microbe, parasite or virus in culture; set-up: MIC S9 / MIC S7 / MIC S11 / MIC S8 / MIC S10: unit not given beside the values; details: for MIC S9: E. coli ATCC 35218
Protocol: The MIC of antibacterial compounds against multiple species and strains was determined using the broth microdilution method according to M07-A10 Clinical and Laboratory Standards Institute (CLSI) guidelines (CLSI (2015) Methods for dilution antimicrobial susceptibility tests for bacteria that grow aerobically; Approved Standard, Tenth Edition. CLSI Document M7-A10 (ISBN 1-56238-987-4). Wayne, Pa.: Clinical and Laboratory Standards Institute, 19087, USA.). In short, bacterial strain preparation was performed on D1 and D2. […] 5-10 well-isolated colonies of similar morphology were selected and re-streaked onto fresh agar plates using sterile loops and incubated for 20-24 hr at 35±2° C. Bacterial strains were subcultured two times to ensure fresh inoculums for MIC screening. […] Alternatively, 1-2 colonies were transferred into 500 μL of saline and OD600 was adjusted to ˜0.1 using an OD meter. Bacterial inoculum was diluted by 1:280 for Gram-positive strains and 1:400 for Gram-negative strains into corresponding medium broth (CAMHB, CAMHB+3% lysed horse blood, HTM) (e.g. 35.6 μL of inoculum into 10 mL of CAMHB or 25 μL of inoculum into 10 mL of CAMHB). For compound plate, the compound stock solutions were prepared in 100% DMSO on the day of MIC screening and used immediately. Compound stock concentration=[(highest testing concentration)×100 μL/2 μL] (e.g. if the required highest testing concentration is 64 μg/mL in assay plates, stock concentration=64 μg/mL×100 μL/2 μL=3.2 mg/mL). […] 1 μL of each well was transferred in a new MTP, which served as the test plate by subsequent inoculation. The bacterial suspension prepared above is dispensed at 98 μL/well within 15 minutes after preparation. Negative controls (lack of bacterial cells) and growth control wells (lack of compound) were included in all plates. MTPs were incubated for 18-24 hours at 35±2° C. in ambient air. The MIC was recorded and CFUs were calculated on Day 4. The assay plate was placed on the top of MIC reader, and the magnification mirror was adjusted to read each wells, recording growth status as raw data. Photo images of each assay plates were recorded using Q Count 530 (Spiral Biotech). The MIC value of each compound, expressed as μg/mL, was determined as the lowest concentration required for complete growth inhibition (no visible growth).

[5] = Acinetobacter baumannii, ATCC19606, read-out: MIC S1, A. baumannii ATCC 19606
[6] = Acinetobacter baumannii, ATCC51432, read-out: MIC S2, A. baumannii ATCC 51432
[7] = Acinetobacter baumannii, ATCCBAA747, read-out: MIC S3, A. baumannii ATCC BAA-747
[8] = Escherichia coli, ATCC25922, read-out: MIC S11, E. coli ATCC 25922
[9] = Escherichia coli, ATCCBAA2340, read-out: MIC S10, E. coli ATCC BAA-2340
[10] = Klebsiella pneumoniae, ATCC10031, read-out: MIC S4, K. pneumoniae ATCC 10031
[11] = Klebsiella pneumoniae, ATCC700603, read-out: MIC S5, K. pneumoniae ATCC 700603
[12] = Klebsiella pneumoniae, ATCCBAA2146, read-out: MIC S6, K. pneumoniae ATCC BAA-2146
[13] = Pseudomonas aeruginosa, ATCC27853, read-out: MIC S7, P. aeruginosa ATCC 27853
[14] = Pseudomonas aeruginosa, ATCCBAA2113, read-out: MIC S8, P. aeruginosa ATCC BAA-2113

| SMILES | IC50 [1] [nM] | IC50 [2] [nM] | IC50 [3] [nM] | MIC [4, 5] [µg/mL] | MIC [4, 6] [µg/mL] | MIC [4, 7] [µg/mL] | MIC S9 [4] | MIC [4, 8] [µg/mL] | MIC [4, 9] [µg/mL] | MIC [4, 10] [µg/mL] | MIC [4, 11] [µg/mL] | MIC [4, 12] [µg/mL] | MIC [4, 13] [µg/mL] | MIC [4, 14] [µg/mL] | MIC S11 ([4]; E. coli ATCC 25922) | MIC S7 ([4]; P. aeruginosa ATCC 27853) |
| --- | --- | --- | --- | --- | --- | --- | --- | --- | --- | --- | --- | --- | --- | --- | --- | --- |
| CNc1cc(F)c(F)c2c1[nH]c1ncc(-c3ccc4ccc(C(=O)O)c(=O)n4c3)c(N3CC[C@H]4CCN(C)[C@H]4C3)c12 [Example 3.04A, 7-[4-[(3aR,7aR)-1-methyl-3,3a,4,5,7,7a-hexahydro-2H-pyrrolo[2,3-c]pyridin-6-yl]-5,6-difluoro-8-(methylamino)-9H-pyrido[2,3-b]indol-3-yl]-4-oxo-quinolizine-3-carboxylic acid] | < 98 | < 98 | < 98 | 0.218 (≈ 0.39 µM) | 0.218 (≈ 0.39 µM) | 0.218 (≈ 0.39 µM) | 0.218 | 0.082 (≈ 0.147 µM) | 0.218 (≈ 0.39 µM) | 0.027 (≈ 0.0483 µM) | 1.75 (≈ 3.13 µM) | 1.75 (≈ 3.13 µM) | 0.436 (≈ 0.781 µM) | 3.49 (≈ 6.25 µM) | – | – |
| CNc1cc(F)c(F)c2c1[nH]c1ncc(-c3ccc4ccc(C(=O)O)c(=O)n4c3)c(N3C[C@H]4CCN(C)[C@H]4C3)c12 [Example 3.03A, 7-[4-[(3aR,6aR)-1-methyl-2,3,3a,4,6,6a-hexahydropyrrolo[3,4-b]pyrrol-5-yl]-5,6-difluoro-8-(methylamino)-9H-pyrido[2,3-b]indol-3-yl]-4-oxo-quinolizine-3-carboxylic acid] | < 98 | < 98 | < 98 | 0.106 (≈ 0.195 µM) | 0.212 (≈ 0.389 µM) | 0.212 (≈ 0.389 µM) | 0.425 | 0.08 (≈ 0.147 µM) | 0.425 (≈ 0.78 µM) | 0.027 (≈ 0.0496 µM) | 3.4 (≈ 6.25 µM) | 1.7 (≈ 3.13 µM) | 0.85 (≈ 1.56 µM) | 3.4 (≈ 6.25 µM) | – | – |
| CNc1cc(F)c(F)c2c1[nH]c1ncc(-c3ccc4ccc(C(=O)O)c(=O)n4c3)c(N(C)C)c12 [Example 1.01, 7-(4-(Dimethylamino)-5,6-difluoro-8-(methylamino)-9H-pyrido[2,3-b]indol-3-yl)-4-oxo-411-quinolizine-3-carboxylic acid] | < 98 | < 98 | < 98 | 0.057 (≈ 0.123 µM) | 0.45 (≈ 0.971 µM) | 0.225 (≈ 0.485 µM) | 0.113 | 0.169 (≈ 0.365 µM) | 0.225 (≈ 0.485 µM) | 0.057 (≈ 0.123 µM) | 0.45 (≈ 0.971 µM) | 1.8 (≈ 3.89 µM) | 0.901 (≈ 1.94 µM) | 0.901 (≈ 1.94 µM) | – | – |
| CNc1cc(F)c(Cl)c2c1[nH]c1ncc(-c3ccc4ccc(C(=O)O)c(=O)n4c3)c(N3C[C@H]4CC[C@@H](N(C)C)[C@H]4C3)c12 [Example 1.08, 7-[4-[cis-(4R)-4-(dimethylamino)-3,3a,4,5,6,6a-hexahydro-1H-cyclopenta[c]pyrrol-2-yl]-5-chloro-6-fluoro-8-(methylamino)-9H-pyrido[2,3-b]indol-3-yl]-4-oxo-quinolizine-3-carboxylic acid] | < 98 | < 98 | < 98 | 0.274 (≈ 0.465 µM) | 0.274 (≈ 0.465 µM) | 0.548 (≈ 0.93 µM) | 0.548 | 0.206 (≈ 0.35 µM) | 0.548 (≈ 0.93 µM) | 0.069 (≈ 0.117 µM) | 4.39 (≈ 7.46 µM) | 2.2 (≈ 3.73 µM) | 2.2 (≈ 3.73 µM) | 4.39 (≈ 7.46 µM) | – | – |
| CNc1cc(F)c(F)c2c1[nH]c1ncc(-c3ccc4c(C)cc(C(=O)O)c(=O)n4c3)c(N3CC[C@H]4CN(C)C[C@H]43)c12 (relative stereo) [Example 2.04, 7-[4-[cis-5-methyl-2,3,3a,4,6,6a-hexahydropyrrolo[2,3-c]pyrrol-1-yl]-5,6-difluoro-8-(methylamino)-9H-pyrido[2,3-b]indol-3-yl]-1-methyl-4-oxo-quinolizine-3-carboxylic acid] | < 98 | < 98 | < 98 | 0.461 (≈ 0.825 µM) | 0.614 (≈ 1.1 µM) | 0.922 (≈ 1.65 µM) | 0.614 | 0.173 (≈ 0.31 µM) | 0.922 (≈ 1.65 µM) | 0.077 (≈ 0.138 µM) | 4.92 (≈ 8.8 µM) | 4.92 (≈ 8.8 µM) | 2.46 (≈ 4.4 µM) | 3.69 (≈ 6.6 µM) | – | – |
| CNc1cc(F)c(C#N)c2c1[nH]c1ncc(-c3ccc4ccc(C(=O)O)c(=O)n4c3)c(N3C[C@H]4CCN(C)[C@H]4C3)c12 (single isomer, unassigned) [Example 1.11, 7-[5-cyano-6-fluoro-4-(cis-1-methyl-2,3,3a,4,6,6a-hexahydropyrrolo[3,4-b]pyrrol-5-yl)-8-(methylamino)-9H-pyrido[2,3-b]indol-3-yl]-4-oxo-quinolizine-3-carboxylic acid] | < 98 | < 98 | < 98 | 0.26 (≈ 0.471 µM) | 0.26 (≈ 0.471 µM) | 0.26 (≈ 0.471 µM) | 0.260 | – | 0.26 (≈ 0.471 µM) | 0.033 (≈ 0.0598 µM) | 1.04 (≈ 1.88 µM) | 1.04 (≈ 1.88 µM) | – | 2.08 (≈ 3.77 µM) | 0.097 | 1.038 |
| CNc1cc(F)c(F)c2c1[nH]c1ncc(-c3ccc4c(Cl)cc(C(=O)O)c(=O)n4c3)c(N3CC[C@H]4CN(C)C[C@H]43)c12 (relative stereo) [Example 2.11, 7-[4-[cis-5-methyl-2,3,3a,4,6,6a-hexahydropyrrolo[2,3-c]pyrrol-1-yl]-5,6-difluoro-8-(methylamino)-9H-pyrido[2,3-b]indol-3-yl]-1-chloro-4-oxo-quinolizine-3-carboxylic acid] | < 98 | < 98 | < 98 | 0.27 (≈ 0.466 µM) | 0.541 (≈ 0.934 µM) | 0.541 (≈ 0.934 µM) | 1.081 | 0.203 (≈ 0.351 µM) | 1.08 (≈ 1.87 µM) | 0.068 (≈ 0.117 µM) | 4.33 (≈ 7.48 µM) | 4.33 (≈ 7.48 µM) | 2.17 (≈ 3.74 µM) | 4.33 (≈ 7.48 µM) | – | – |
| CNc1cc(F)c(Cl)c2c1[nH]c1ncc(-c3ccc4ccc(C(=O)O)c(=O)n4c3)c(N3CC[C@H]4CN(C)C[C@H]43)c12 [Example 1.07, 7-(5-chloro-6-fluoro-8-(methylamino)-4-((3aS,6aS)-5-methyl-2,3,3a,4,6,6a-hexahydropyrrolo[2,3-c]pyrrol-1-yl)-9H-pyrido[2,3-b]indol-3-yl)-4-oxo-4H-quinolizine-3-carboxylic acid] | < 98 | < 98 | < 98 | 0.066 (≈ 0.118 µM) | 0.066 (≈ 0.118 µM) | 0.263 (≈ 0.469 µM) | 0.132 | 0.049 (≈ 0.0873 µM) | 0.132 (≈ 0.235 µM) | 0.033 (≈ 0.0588 µM) | 1.05 (≈ 1.88 µM) | 0.527 (≈ 0.939 µM) | 0.527 (≈ 0.939 µM) | 8.44 (≈ 15 µM) | – | – |
| CNc1cc(F)c(F)c2c1[nH]c1ncc(-c3ccc4ccc(C(=O)O)c(=O)n4c3)c(N3CC4[C@H](CC[C@@H]4N(C)C)C3)c12 (stereo partly drawn) [Example 1.09, 7-[4-[cis-(4S)-4-(dimethylamino)-3,3a,4,5,6,6a-hexahydro-1H-cyclopenta[c]pyrrol-2-yl]-5,6-difluoro-8-(methylamino)-9H-pyrido[2,3-b]indol-3-yl]-4-oxo-quinolizine-3-carboxylic acid] | < 98 | < 98 | < 98 | – | – | – | – | – | – | – | – | – | – | – | – | – |
